Reference: PMC11022895 (Drug Metabolism and Disposition, 2021)
Where two headings read alike, the source gives them in different places.

Assays:
[1] = target: T1, CYP1A2 (Homo sapiens, UniProt P05177); assay: IC50 shift study; type: in vitro ADME
T1 sequence (P05177 1-516): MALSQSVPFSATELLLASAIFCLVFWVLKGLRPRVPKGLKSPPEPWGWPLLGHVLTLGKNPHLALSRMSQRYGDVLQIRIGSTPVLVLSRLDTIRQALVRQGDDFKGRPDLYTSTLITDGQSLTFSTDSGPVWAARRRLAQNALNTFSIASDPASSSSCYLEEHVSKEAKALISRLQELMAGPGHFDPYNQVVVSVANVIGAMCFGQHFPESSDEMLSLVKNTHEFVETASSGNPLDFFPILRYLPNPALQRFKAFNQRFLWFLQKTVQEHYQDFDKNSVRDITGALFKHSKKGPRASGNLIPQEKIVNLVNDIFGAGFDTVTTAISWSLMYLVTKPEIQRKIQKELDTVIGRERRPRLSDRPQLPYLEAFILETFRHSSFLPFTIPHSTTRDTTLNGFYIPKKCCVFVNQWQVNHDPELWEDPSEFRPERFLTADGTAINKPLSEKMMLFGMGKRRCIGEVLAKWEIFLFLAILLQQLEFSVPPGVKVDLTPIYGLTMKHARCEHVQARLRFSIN

[2] = target: T1, CYP1A2; assay: Inhibition of CYP1A2 probe; type: in vitro ADME; settings: for IC50: probe phenacetin; for Ki: probe phenacetin (CYP1A2)
[3] = target: T2, CYP2B6 (Homo sapiens, UniProt P20813); assay: IC50 shift study; type: in vitro ADME
T2 sequence (P20813 1-491): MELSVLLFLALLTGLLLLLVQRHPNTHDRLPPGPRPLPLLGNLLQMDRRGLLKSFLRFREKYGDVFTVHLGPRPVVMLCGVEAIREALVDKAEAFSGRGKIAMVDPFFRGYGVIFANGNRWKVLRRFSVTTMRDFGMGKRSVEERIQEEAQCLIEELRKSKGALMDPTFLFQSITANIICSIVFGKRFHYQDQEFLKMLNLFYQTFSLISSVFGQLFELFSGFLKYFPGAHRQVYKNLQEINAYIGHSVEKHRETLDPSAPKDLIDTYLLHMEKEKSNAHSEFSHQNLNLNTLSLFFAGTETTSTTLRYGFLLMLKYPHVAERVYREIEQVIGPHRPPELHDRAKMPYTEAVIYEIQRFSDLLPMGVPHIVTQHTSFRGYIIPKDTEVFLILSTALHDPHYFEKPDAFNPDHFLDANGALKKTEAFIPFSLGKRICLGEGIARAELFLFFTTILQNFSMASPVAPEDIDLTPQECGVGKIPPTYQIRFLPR

[4] = target: T3, CYP2E1 (Homo sapiens, UniProt P05181); assay: IC50 shift study; type: in vitro ADME
[5] = target: CYP2C9 (Homo sapiens, UniProt P11712); settings: for inhibition of activity against S-warfarin: rCYP2C9 microsomes, probe S-warfarin (Supplemental Table 2)
[6] = Unbound fraction in incubation; type: in vitro ADME; settings: human, human liver microsomes in buffer
[7] = target: CYP2D6 (Homo sapiens, UniProt P10635); settings: rCYP2D6 microsomes; probe bufuralol (Supplemental Table 2)
[8] = target: T2, CYP2B6; assay: Inhibition of CYP2B6 probe; type: in vitro ADME; settings: for IC50: probe bupropion; for Ki: probe bupropion (CYP2B6)
[9] = target: T3, CYP2E1; assay: Inhibition of CYP2E1 probe; type: in vitro ADME; settings: for IC50: probe chlorzoxazone; for Ki: probe chlorzoxazone (CYP2E1)
[10] = target: T3, CYP2E1; assay: Inhibition of rCYP2E1 in microsomes from CYP450-overexpressing HEK293 cells; type: in vitro ADME; settings: for IC50 / Ki: probe chlorzoxazone; for decrease in activity: CYP2E1
[11] = target: T2, CYP2B6; assay: Inhibition of rCYP2B6 in microsomes from CYP450-overexpressing HEK293 cells; type: in vitro ADME; settings: for IC50 / Ki: probe bupropion; for inhibition of activity against efavirenz: probe efavirenz (Supplemental Table 2)
[12] = target: T1, CYP1A2; assay: Inhibition of rCYP1A2 in microsomes from CYP450-overexpressing HEK293 cells; type: in vitro ADME; settings: probe phenacetin; for Ki: rCYP1A2 microsomes
[13] = plasma, ref Manini et al., 2015, Cox et al., 2019, cited from earlier work
[14] = Unbound fraction in incubation; type: in vitro ADME; settings: human, HEK293 cell microsomes in buffer
[15] = IC50 (+), 30-min preincubation with NADPH
[16] = IC50 (−), 30-min preincubation without NADPH
[17] = IC50,u, HLM, corrected for fu,inc
[18] = Ki,u, HLM, corrected for fu,inc
[19] = IC50,u, rCYP2E1 microsomes, corrected for fu,inc
[20] = Ki,u, rCYP2E1 microsomes, corrected for fu,inc
[21] = IC50,u, rCYP2B6 microsomes, corrected for fu,inc
[22] = Ki,u, rCYP2B6 microsomes, corrected for fu,inc

CYP2C9, sequence (P11712 whole entry): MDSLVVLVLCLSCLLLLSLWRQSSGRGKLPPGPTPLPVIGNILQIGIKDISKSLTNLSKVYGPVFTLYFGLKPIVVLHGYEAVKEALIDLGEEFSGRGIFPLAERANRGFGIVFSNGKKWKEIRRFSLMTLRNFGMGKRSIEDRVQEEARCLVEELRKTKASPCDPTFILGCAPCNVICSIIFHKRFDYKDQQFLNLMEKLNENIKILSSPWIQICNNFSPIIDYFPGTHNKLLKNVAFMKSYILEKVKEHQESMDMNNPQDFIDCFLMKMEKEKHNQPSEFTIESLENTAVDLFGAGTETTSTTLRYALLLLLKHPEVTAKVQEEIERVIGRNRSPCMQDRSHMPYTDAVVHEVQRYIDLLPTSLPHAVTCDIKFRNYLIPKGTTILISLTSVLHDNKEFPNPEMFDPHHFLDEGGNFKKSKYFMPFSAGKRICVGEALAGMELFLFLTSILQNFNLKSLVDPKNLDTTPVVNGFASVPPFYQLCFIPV
T3 sequence (P05181 whole entry): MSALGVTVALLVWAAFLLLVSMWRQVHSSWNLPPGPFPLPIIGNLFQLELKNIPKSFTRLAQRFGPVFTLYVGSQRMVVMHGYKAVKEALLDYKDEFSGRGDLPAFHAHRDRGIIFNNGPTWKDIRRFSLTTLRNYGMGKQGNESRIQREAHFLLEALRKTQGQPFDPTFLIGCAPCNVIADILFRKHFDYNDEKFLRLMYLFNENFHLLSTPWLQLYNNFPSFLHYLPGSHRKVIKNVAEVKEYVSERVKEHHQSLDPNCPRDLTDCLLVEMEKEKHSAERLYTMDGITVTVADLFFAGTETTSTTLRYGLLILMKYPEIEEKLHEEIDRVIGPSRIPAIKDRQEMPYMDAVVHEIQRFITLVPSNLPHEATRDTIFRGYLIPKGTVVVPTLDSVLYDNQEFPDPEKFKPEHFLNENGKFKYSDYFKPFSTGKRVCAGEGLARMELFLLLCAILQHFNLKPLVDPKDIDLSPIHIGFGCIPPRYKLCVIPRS
CYP2D6, sequence (P10635 whole entry): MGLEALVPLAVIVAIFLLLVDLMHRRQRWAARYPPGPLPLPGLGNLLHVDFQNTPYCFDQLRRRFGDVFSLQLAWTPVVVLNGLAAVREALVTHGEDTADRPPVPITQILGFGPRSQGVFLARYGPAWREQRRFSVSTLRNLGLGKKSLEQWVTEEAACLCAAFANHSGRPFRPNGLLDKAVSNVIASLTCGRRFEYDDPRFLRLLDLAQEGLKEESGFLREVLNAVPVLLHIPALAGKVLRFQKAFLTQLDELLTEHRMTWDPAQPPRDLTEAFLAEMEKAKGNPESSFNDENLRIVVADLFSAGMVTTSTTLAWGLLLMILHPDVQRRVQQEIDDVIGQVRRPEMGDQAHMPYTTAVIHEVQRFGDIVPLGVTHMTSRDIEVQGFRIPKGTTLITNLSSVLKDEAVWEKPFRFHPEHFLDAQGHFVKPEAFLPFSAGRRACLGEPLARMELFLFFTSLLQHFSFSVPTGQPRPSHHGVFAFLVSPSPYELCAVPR

| Compound | IC50 [3, 15] | IC50 [3, 16] | IC50 [4, 15] | IC50 [4, 16] | inhibition of activity against S-warfarin [5] | fraction unbound at 30 min, 50 µM [6] | inhibition of activity against bufuralol [7] | IC50 ([8]; IC50, HLM) | IC50 [8, 17] | Ki ([8]; Ki, HLM) | Ki [8, 18] | IC50 ([9]; IC50, HLM) | IC50 [9, 17] | Ki ([9]; Ki, HLM) | Ki [9, 18] | IC50 ([10]; IC50, rCYP2E1 microsomes) | IC50 [10, 19] | Ki ([10]; Ki, rCYP2E1 microsomes) | Ki [10, 20] | IC50 ([11]; IC50, rCYP2B6 microsomes) | further results |
| --- | --- | --- | --- | --- | --- | --- | --- | --- | --- | --- | --- | --- | --- | --- | --- | --- | --- | --- | --- | --- | --- |
| C=C(C)[C@@H]1CCC(C)=C[C@H]1c1c(O)cc(CCCCC)cc1O [CBD, cannabidiol] | 1300 ± 450 nM | 1900 ± 660 nM | 900 ± 400 nM | 1100 ± 660 nM | Strong inhibition | 0.098 ± 0.023 | Strong inhibition | 2700 ± 2400 nM | 260 ± 240 nM | 2200 ± 530 nM | 220 ± 52 nM | 1400 ± 250 nM | 140 ± 25 nM | 590 ± 230 nM | 58 ± 23 nM | 590 ± 130 nM | 37 ± 8.1 nM | 340 ± 98 nM | 21 ± 6.1 nM | 2100 ± 610 nM | IC50 [1, 15]: 1800 ± 310 nM; IC50 [1, 16]: 2100 ± 250 nM; IC50 ([2]; IC50, HLM): 6800 ± 1500 nM; IC50 [2, 17]: 670 ± 150 nM; Ki ([2]; Ki, HLM): 2100 ± 1100 nM; Ki [2, 18]: 210 ± 110 nM; IC50 [11, 21]: 130 ± 38 nM; Ki ([11]; Ki, rCYP2B6 microsomes): 1100 ± 240 nM; Ki [11, 22]: 68 ± 15 nM; inhibition of activity against efavirenz ([11]; rCYP2B6 microsomes): Strong inhibition; IC50 ([12]; IC50, rCYP1A2 microsomes): 2100 ± 930 nM; Ki ([12]; Ki): 1900 ± 1200 nM; Ki ([12]; Ki,u, corrected for fu,inc): 120 ± 74 nM; Cmax ([13]; 20-mg inhaled dose of CBD): 10.3 nM; Cmax ([13]; oral dose of 800 mg of CBD): 703 nM |
| CCCCCc1cc(O)c2c(c1)OC(C)(C)c1ccc(C)cc1-2 [CBN, cannabinol] | 2000 ± 700 nM | 2100 ± 830 nM | 730 ± 210 nM | 870 ± 150 nM | Strong inhibition | 0.052 ± 0.081 | no inhibition was observed | 1700 ± 590 nM | 880 ± 310 nM | 1700 ± 420 nM | 880 ± 220 nM | 1100 ± 720 nM | 570 ± 370 nM | 330 ± 91 nM | 170 ± 47 nM | 920 ± 100 nM | 280 ± 30 nM | 210 ± 97 nM | 63 ± 29 nM | 2100 ± 870 nM | decrease in activity ([5]; CYP2C9, 10 µM cannabinoid): 55%; fraction unbound at 30 min, 50 µM [14]: 0.03 ± 0.052; decrease in activity ([10]; 1 µM cannabinoid): 77%; decrease in activity ([10]; 10 µM cannabinoid): 80%; decrease in activity ([11]; CYP2B6, 10 µM cannabinoid): 75%; IC50 [11, 21]: 630 ± 260 nM; Ki ([11]; Ki, rCYP2B6 microsomes): 620 ± 190 nM; Ki [11, 22]: 190 ± 57 nM; inhibition of activity against efavirenz ([11]; rCYP2B6 microsomes): Strong inhibition |
